Results taken from US9890175B2, “Taxane compound, and preparation method and use thereof” (JIANGSU TASLY DIYI PHARMACEUTICAL CO., LTD., priority 2013, dated 2018).

Experiment: Caco-2 cell monolayer membrane transport assay (Papp and recovery)
Assay type: in vitro ADME
Conditions: human; for recovery: Caco-2, Recovery rate in mass; for Papp A→B: Caco-2, Papp A-B; for Papp B→A: Caco-2, Papp B-A
Text: Caco-2 Cell Monolayer Membrane Transport Assay
Human-derived colorectal adenocarcinoma cell line Caco-2 cell monolayer model was used to study the bidirectional transport of the target compounds from the apical (AP) side to the basolateral (BL) side and from BL side to AP side. HPLC was used for quantitative analysis to calculate transport parameters, apparent permeability coefficient (Papp) and the efflux ratio.

Row | Structure (SMILES) | recovery (Mean) | recovery (Sample-01) | recovery (Sample-02) | Papp A→B (Mean) | Papp A→B (Sample-01) | Papp A→B (Sample-02) | Papp B→A (Mean) | Papp B→A (Sample-01) | Papp B→A (Sample-02)
1 | CC[C@H]1OC(=O)[C@H](C)[C@@H](O[C@H]2C[C@@](C)(OC)[C@@H](O)[C@H](C)O2)[C@H](C)[C@@H](O[C@@H]2O[C@H](C)C[C@H](N(C)C)[C@H]2O)[C@](C)(O)C[C@@H](C)C(=O)[C@H](C)[C@@H](O)[C@]1(C)O [Erythromycin, reference compound] | 99% | 99.6% | 98.5% | – | – | – | – | – | –
2 | COCCc1ccc(OCC(O)CNC(C)C)cc1 (stereo not drawn) [Metoprolol, reference compound] | 99% | 103% | 95.5% | 27.2 ×10⁻⁶ cm/s | 28.1 ×10⁻⁶ cm/s | 26.2 ×10⁻⁶ cm/s | 22.7 ×10⁻⁶ cm/s | 22.4 ×10⁻⁶ cm/s | 23 ×10⁻⁶ cm/s
